Experiments:
[1] = biological target: T1, ATP-binding cassette sub-family C member 2 (Rattus norvegicus, UniProt Q63120); assay: TP_TRANSPORTER: inhibition of DNP-SG uptake in bile canalicular membrane vesicles from SD rat; format: functional, cell membranes, Sprague-Dawley, Bile canalicular membrane vesicle
[2] = biological target: T1, ATP-binding cassette sub-family C member 2; assay: TP_TRANSPORTER: inhibition of SN-38 uptake in bile canalicular membrane vesicles from SD rat; format: functional, cell membranes, Sprague-Dawley, Bile canalicular membrane vesicle
[3] = biological target: ATP-binding cassette sub-family C member 2 (Rattus norvegicus) (UniProt Q63120); assay: TP_TRANSPORTER: inhibition of SN-38 uptake in bile canalicular membrane vesicles
Sequence of ATP-binding cassette sub-family C member 2 (Rattus norvegicus) (Q63120 whole entry, looked up): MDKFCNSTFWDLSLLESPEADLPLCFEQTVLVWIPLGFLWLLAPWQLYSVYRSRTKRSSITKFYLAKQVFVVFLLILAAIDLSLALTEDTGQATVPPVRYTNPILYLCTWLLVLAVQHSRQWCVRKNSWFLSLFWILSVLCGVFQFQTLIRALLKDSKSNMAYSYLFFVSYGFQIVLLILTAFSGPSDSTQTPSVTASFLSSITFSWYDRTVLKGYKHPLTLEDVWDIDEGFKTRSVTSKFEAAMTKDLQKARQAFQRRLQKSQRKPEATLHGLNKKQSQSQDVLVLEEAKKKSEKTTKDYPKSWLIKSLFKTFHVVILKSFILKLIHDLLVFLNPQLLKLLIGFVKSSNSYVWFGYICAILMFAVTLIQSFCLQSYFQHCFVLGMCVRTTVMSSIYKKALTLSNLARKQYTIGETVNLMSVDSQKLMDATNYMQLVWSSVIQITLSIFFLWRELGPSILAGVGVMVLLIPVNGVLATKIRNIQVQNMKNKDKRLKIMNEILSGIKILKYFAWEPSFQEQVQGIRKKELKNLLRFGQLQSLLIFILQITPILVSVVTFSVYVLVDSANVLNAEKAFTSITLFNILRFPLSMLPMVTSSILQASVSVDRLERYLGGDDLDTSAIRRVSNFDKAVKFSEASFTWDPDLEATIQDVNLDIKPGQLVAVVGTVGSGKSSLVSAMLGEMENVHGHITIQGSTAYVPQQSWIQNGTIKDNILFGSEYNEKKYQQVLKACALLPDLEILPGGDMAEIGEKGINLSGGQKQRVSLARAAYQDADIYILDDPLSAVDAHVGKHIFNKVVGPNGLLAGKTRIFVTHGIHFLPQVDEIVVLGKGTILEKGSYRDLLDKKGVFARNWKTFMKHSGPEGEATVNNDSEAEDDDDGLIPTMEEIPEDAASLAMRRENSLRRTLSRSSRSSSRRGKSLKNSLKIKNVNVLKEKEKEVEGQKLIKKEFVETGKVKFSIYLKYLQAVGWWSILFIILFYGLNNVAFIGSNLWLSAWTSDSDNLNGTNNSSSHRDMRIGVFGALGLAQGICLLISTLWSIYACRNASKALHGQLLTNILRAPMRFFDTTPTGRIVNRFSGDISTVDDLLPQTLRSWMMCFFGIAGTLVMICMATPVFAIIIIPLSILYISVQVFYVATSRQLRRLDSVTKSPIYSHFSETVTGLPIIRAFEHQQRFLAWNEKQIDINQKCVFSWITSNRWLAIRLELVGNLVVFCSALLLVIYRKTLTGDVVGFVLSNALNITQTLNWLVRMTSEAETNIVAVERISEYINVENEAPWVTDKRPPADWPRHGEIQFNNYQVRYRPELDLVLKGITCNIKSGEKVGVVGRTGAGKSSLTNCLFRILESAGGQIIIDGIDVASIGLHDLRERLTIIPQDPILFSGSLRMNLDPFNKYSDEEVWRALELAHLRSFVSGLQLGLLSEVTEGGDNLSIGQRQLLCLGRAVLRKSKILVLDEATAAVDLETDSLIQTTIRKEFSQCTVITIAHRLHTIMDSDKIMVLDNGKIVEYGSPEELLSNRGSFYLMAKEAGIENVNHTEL

[4] = biological target: T1, ATP-binding cassette sub-family C member 2; assay: TP_TRANSPORTER: inhibition of DNP-SG uptake in blie canalicular membrane vesicle from SD rat; format: functional, cell membranes, Sprague-Dawley, Bile canalicular membrane vesicle

T1 sequence (Q63120 whole entry): as the sequence (Q63120 whole entry, looked up) above

| Compound | Ki [1] [µM] | also measured |
| --- | --- | --- |
| N[C@@H](CCC(=O)N[C@@H](CSc1c(Br)c(Br)c2c(c1Br)C(=O)OC2(c1ccc(O)c(S(=O)(=O)O)c1)c1ccc(O)c(S(=O)(=O)O)c1)C(=O)NCC(=O)O)C(=O)O | 0.0461 | – |
| O=C(O)[C@H]1O[C@@H](Oc2cc3oc(-c4ccccc4)cc(=O)c3c(O)c2O)[C@H](O)[C@@H](O)[C@@H]1O [BAICALIN] | 7.95 | – |
| CO/N=C(\C(=O)N[C@@H]1C(=O)N2C(C(=O)O)=C(CSc3nc(C)c(CC(=O)O)s3)CS[C@H]12)c1csc(N)n1 [CEFODIZIME] | 10 | – |
| CC1(C)[C@@H](O[C@H]2O[C@H](C(=O)O)[C@@H](O)[C@H](O)[C@H]2O[C@@H]2O[C@H](C(=O)O)[C@@H](O)[C@H](O)[C@H]2O)CC[C@]2(C)[C@H]3C(=O)C=C4[C@@H]5C[C@@](C)(C(=O)O)CC[C@]5(C)CC[C@@]4(C)[C@]3(C)CC[C@@H]12 [GLYCYRRHIZIN] | 0.84 | Ki [2]: 1.91 µM |
| CC1(C)C(/C=C/C=C/C=C/C=C2\N(CCCCS(=O)(=O)O)c3ccc4ccccc4c3C2(C)C)=[N+](CCCCS(=O)(=O)[O-])c2ccc3ccccc3c21 [INDOCYANINE GREEN] | 1 | – |
| Nc1nc2c(c(=O)[nH]1)N(C=O)C(CNc1ccc(C(=O)N[C@@H](CCC(=O)O)C(=O)O)cc1)CN2 (stereo partly drawn) [LEUCOVORIN] | 132 | – |
| O=C(Nc1cccc2c(=O)cc(-c3nnn[nH]3)oc12)c1ccc(OCCCCc2ccccc2)cc1 [PRANLUKAST] | 41.1 | – |
| CCCN(CCC)S(=O)(=O)c1ccc(C(=O)O)cc1 [PROBENECID] | – | Ki [3]: 42.2 µM; Ki [4]: 44.6 µM |
| O=C1OC(c2ccc(O)c(S(=O)(=O)O)c2)(c2ccc(O)c(S(=O)(=O)O)c2)c2c(Br)c(Br)c(Br)c(Br)c21 [SULFOBROMOPHTHALEIN SODIUM] | 2.18 | Ki [2]: 2.87 µM |
| CREMOPHOR EL | 281 | – |

From ChEMBL document CHEMBL2074105, “The potential for an interaction between MRP2 (ABCC2) and various therapeutic agents: probenecid as a candidate inhibitor of the biliary excretion of irinotecan metabolites” (Drug Metabol Pharmacokin, 2002)
